Measured values published in patent US20030044399A1, “Method of treatment” (SmithKline Beecham Corporation, priority 1998, published 2003).
Where two headings read alike, the source gives them in different places.

Columns and labels:
Cruzain = Cruzain (Trypanosoma cruzi, UniProt P25779); assay: Cysteine protease inhibition, progress curve method, cruzain; type: biochemical; conditions: 4 uM Ac-Lys-Glu-Lys-Leu-Arg-AMC, 100 mM Na acetate pH 5.5, 5 mM cysteine
Summary of the method: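 Kinetic constants from AMC-release progress curves over 20–30 min at ambient temperature in 100 mM Na acetate pH 5.5, 5 mM cysteine, 2% DMSO; enzyme added last to inhibitor plus substrate. Substrates: 10 uM Cbz-Phe-Arg-AMC (Leishmania, Schistosoma), 10 uM Cbz-Leu-Arg-AMC (falcipain), 4 uM Ac-Lys-Glu-Lys-Leu-Arg-AMC (cruzain). Ki,app from linear curves; time-dependent inhibition as kobs/[I].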

Rhodazain = Rhodazain (Trypanosoma brucei rhodesiense, UniProt Q95PM0); assay: Cysteine protease inhibition, progress curve method, rhodazain; type: biochemical, Trypanosoma brucei rhodesiensi; conditions: 10 uM Cbz-Leu-Arg-AMC, 100 mM Na acetate pH 5.5, 5 mM cysteine
Experimental: Standard assay conditions for the determination of kinetic constants used 10 uM fluorogenic peptide substrate, Cbz-Phe-Arg-AMC for the cysteine proteases from Leishmania spp and Schistosoma Mansoni, Cbz-Leu-Arg-AMC for the cysteine proteases from Plasmodium falciparum and Trypanosoma brucei rhodesiensi, and Ac-Lys-Glu-Lys-Leu-Arg-AMC (4 uM final substrate concentration) for the cysteine protease from Trypoanosoma cruzi, and were determined in 100 mM Na acetate at pH 5.5 containing 5 mM cysteine. Stock substrate solutions were prepared at concentrations of […] in DMSO with 10 uM (4 uM for Ac-Lys-Glu-Lys-Leu-Arg-AMC) final substrate concentration in the assays. The final DMSO concentration was 2% and the final volume was 100 uL. All assays were conducted at ambient temperature. Product progress curves were generated over 20 to 30 minutes following formation of AMC product.
Potential inhibitors were evaluated using the progress curve method. Assays were carried out in the presence of variable concentrations of test compound. Reactions were initiated by addition of enzyme to buffered solutions of inhibitor and substrate. Data analysis was conducted according to one of two procedures depending on the appearance of the progress curves in the presence of inhibitors. For those compounds whose progress curves were linear, apparent inhibition constants (Ki,app) were calculated according to equation 1 (Brandt et al., Biochemitsry, 1989, 28, 140):
v=VmA/[Ka(1+I/Ki,app)+A] (1)
Where v is the velocity of the reaction with maximal velocity Vm, A is the concentration of substrate with Michaelis constant of Ka, and I is the concentration of inhibitor.
[AMC]=vsst+(v0−vss)[1−exp (−kobst)]/kobs (2)
Where [AMC] is the concentration of product formed over time t, v0 is the initial reaction velocity and vss is the final steady state rate. Values for kobs were then analyzed as a linear function of inhibitor concentration to generate an apparent second order rate constant (kobs/inhibitor concentration or kobs/[I]) describing the time-dependent inhibition. A complete discussion of this kinetic treatment has been fully described (Morrison et al., Adv. Enzymol. Relat. Areas Mol. Biol., 1988, 61, 201).
Exemplary inhibition data for the compounds used in the present method collected in accordance with the above-described procedure are listed in Table I.

Chain of Rhodazain (Q95PM0 entry or part of it): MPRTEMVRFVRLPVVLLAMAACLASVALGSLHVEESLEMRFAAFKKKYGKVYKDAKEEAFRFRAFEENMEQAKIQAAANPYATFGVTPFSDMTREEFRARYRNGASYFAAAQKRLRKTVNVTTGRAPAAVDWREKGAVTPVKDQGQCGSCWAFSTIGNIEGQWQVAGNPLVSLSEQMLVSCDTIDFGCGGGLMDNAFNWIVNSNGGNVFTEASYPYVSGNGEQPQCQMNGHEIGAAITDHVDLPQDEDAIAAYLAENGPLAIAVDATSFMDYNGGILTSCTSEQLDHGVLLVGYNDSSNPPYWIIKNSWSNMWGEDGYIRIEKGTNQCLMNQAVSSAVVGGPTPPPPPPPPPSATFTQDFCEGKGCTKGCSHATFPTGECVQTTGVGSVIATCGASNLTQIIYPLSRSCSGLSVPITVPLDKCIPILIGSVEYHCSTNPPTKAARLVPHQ
Chain of Cruzain (P25779 123-337): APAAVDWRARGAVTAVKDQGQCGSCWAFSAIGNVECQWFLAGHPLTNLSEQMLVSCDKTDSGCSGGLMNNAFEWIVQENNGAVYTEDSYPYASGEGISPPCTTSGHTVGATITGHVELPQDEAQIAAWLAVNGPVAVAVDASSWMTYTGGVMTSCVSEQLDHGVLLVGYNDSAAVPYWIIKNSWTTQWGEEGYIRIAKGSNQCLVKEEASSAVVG

| Molecule | Ki (Cruzain; read-out: Cruzain Ki) [nM] | Ki (Rhodazain; Rhodazain Ki (nM)) [nM] | Ki (Cruzain; Cruzain Ki nM) [nM] | Ki (Rhodazain; read-out: Rhodazain Ki) [nM] |
| --- | --- | --- | --- | --- |
| CC(C)C[C@@H](NC(=O)c1ccc2c(c1)OCO2)C(=O)N[C@@H]1CCCN(S(=O)(=O)c2cccc[n+]2[O-])CC1=O [Example 55, Benzo[1,3]dioxole-5-carboxylic acid {(S)-3-methyl-1-[3-oxo-1-(1-oxy-pyridine-2-sulfonyl)-azepan-4-ylcarbamoyl]-butyl}amide] | 12 | 7.3 | – | – |
| CC(C)C[C@H](NC(=O)c1cccc2ccccc12)C(=O)N[C@H]1CCCN(S(=O)(=O)c2ccccn2)CC1=O [Example 184, Naphthalene-1-carboxylic acid {(S)-3-methyl-1-[3-oxo-1-(pyridine-2-sulfonyl)-azepan-4-ylcarbamoyl]-butyl}-amide] | – | 1.8 | 2.1 | – |
| CC(C)C[C@@H](NC(=O)c1cc2cc(F)ccc2o1)C(=O)N[C@H]1CCCN(S(=O)(=O)c2cccc[n+]2[O-])CC1=O (single isomer, unassigned) [Example 194] | 8.7 | 6.7 | – | – |
| CC(C)C[C@H](NC(=O)c1ccc2ccccc2n1)C(=O)N[C@H]1CCCN(C(=O)Nc2ccccc2F)CC1=O [Example 219, Quinoline-2-carboxylic acid {(S)-1-[1-(2-fluoro-phenylcarbamoyl)-3-oxo-azepan-4-ylcarbamoyl]-3-methyl-butyl}-amide] | 8.4 | 5.5 | – | – |
| CC(C)C[C@@H](NC(=O)c1ccc(Br)o1)C(=O)N[C@@H]1CCCN(S(=O)(=O)c2ccccn2)CC1=O (stereo in doubt) [Example 34, 5-Bromo-furan-2-carboxylic acid {(S)-3-methyl-1-[3-oxo-1-(pyridine-2-sulfonyl)-azepan-4-ylcarbamoyl]-butyl}amide] | 12 | 2.6 | – | – |
| Cc1c(C(=O)N[C@H](CC(C)C)C(=O)N[C@H]2CCCN(S(=O)(=O)c3cccc[n+]3[O-])CC2=O)oc2ccc(F)cc12 (single isomer, unassigned) [Example 195] | 9.4 | 6.6 | – | – |
| CC(C)C[C@H](NC(=O)c1cc2ccccc2s1)C(=O)N[C@H]1CCCN(C(=O)Nc2ccccc2F)CC1=O (stereo in doubt) [Example 215, Benzo[b]thiophene-2-carboxylic acid {(S)-1-[1-(2-fluoro-phenylcarbamoyl)-3-oxo-azepan-4-ylcarbamoyl]-3-methyl-butyl}-amide] | 6.4 | 3.6 | – | – |
| Cc1c(C(=O)N[C@H](CC(C)C)C(=O)N[C@@H]2CCCN(S(=O)(=O)c3ccccn3)CC2=O)oc2ccccc12 (single isomer, unassigned) [Example 97] | 4 | 2.7 | – | – |
| CC(C)C[C@@H](NC(=O)c1cc2cc(F)c(F)cc2o1)C(=O)N[C@@H]1CCCN(S(=O)(=O)c2ccccn2)CC1=O (single isomer, unassigned) [Example 150] | 5.4 | 3.7 | – | – |
| CC(C)C[C@H](NC(=O)c1cc2ccccc2n1C)C(=O)N[C@H]1CCCN(S(=O)(=O)c2nccs2)CC1=O [Example 128, 1-Methyl-1H-indole-2-carboxylic acid{(S)-3-methyl-1-[3-oxo-1-(thiazole-2-sulfonyl)-azepan-4-ylcarbamoyl]-butyl}amide] | 17 | 8.2 | – | – |
| 5-(2-Morpholin-4-yl-ethoxy)-benzofuran-2-carboxylic acid {(S)-3-methyl-1-[3-oxo-(1-oxy-pyridine2-sulfonyl)-azepan-4-ylcarbamoyl]-buty}-amide [Example 116] | 4.4 | – | – | 3.2 |
| CC(C)C[C@@H](NC(=O)c1cc2cc(OCC[N+]3([O-])CCOCC3)ccc2o1)C(=O)N[C@@H]1CCCN(S(=O)(=O)c2ccccn2)CC1=O [Example 43, 5-(4-Oxy-morpholino-4-yl-ethoxy)-benzofuran-2-carboxylic acid {(S)-3-methyl-1-[3-oxo-1-(pyridine-2-sulfonyl)-azepan-4-ylcarbamoyl]-butyl}amide] | 3.6 | 4.9 | – | – |
| CC(C)C[C@@H](NC(=O)c1ccc2ccccc2n1)C(=O)N[C@@H]1CCCN(S(=O)(=O)c2ccccn2)CC1=O (single isomer, unassigned) [Example 151] | 7.1 | 6.1 | – | – |
| Cc1c(C(=O)N[C@@H](CC(C)C)C(=O)N[C@H]2CCCN(C(=O)Nc3ccccc3F)CC2=O)oc2ccccc12 [Example 216, 3-Methyl-benzofuran-2-carboxylic acid {(S)-1-[1-(2-fluoro-phenylcarbamoyl)-3-oxo-azepan-4-ylcarbamoyl]-3-methyl-butyl}-amide] | 6.9 | 3.4 | – | – |
| COc1ccc(C(=O)N[C@H](CC(C)C)C(=O)N[C@@H]2CCCN(S(=O)(=O)c3ccccc3C#N)CC2=O)cc1OC [Example 120] | 9.9 | 11 | – | – |
| COc1ccc2oc(C(=O)N[C@@H](CC(C)C)C(=O)N[C@H]3CCN(S(=O)(=O)c4cccc[n+]4[O-])CCC3=O)c(C)c2c1 [Example 205, 5-Methoxy-3-methyl-benzofuran-2-carboxylic acid {(S)-3-methyl-1-[3-oxo-1-(1-oxy-pyridine-2-sulfonyl)-azepan-4-ylcarbamoyl]-butyl}-amide] | 5.2 | 3.2 | – | – |
| 5,6-Dimethoxy-benzofuran-2-carboxylic acid {(S)-3-methyl-1-[3-oxo-1-(1-oxy-pyridine-2-sulfonyl)-azepan-4-ylcarbamoyl]-butyl}amide [Example 48] | 19 | – | – | 4.2 |
| CC(C)CC(NC(=O)c1cc2ccccc2n1C)C(=O)NC1CCCN(S(=O)(=O)c2cccs2)CC1=O [Example 148, 1-Methyl-1-H-indole-2-carboxylic acid-{(S)-3-methyl-1-[3-oxo-1-(thiophene-2-sulfonyl)-azepan-4-ylcarbamoyl]-butyl}-amide] | 8.2 | 23 | – | – |
| COc1cccc2cc(C(=O)N[C@@H](CC(C)C)C(=O)N[C@H]3CCCN(S(=O)(=O)c4nccs4)CC3=O)oc12 [Example 125] | 4 | 4.1 | – | – |
| Cc1c(C(=O)N[C@@H](CC(C)C)C(=O)N[C@@H]2CCCN(S(=O)(=O)c3cccs3)CC2=O)oc2ccccc12 [Example 145, 3-Methyl-benzofuran-2-carboxylic acid-{(S)-3-methyl-1-[3-oxo-1-(thiophene-2-sulfonyl)-azepan-4-ylcarbamoyl]-butyl}-amide] | 6.2 | 9.4 | – | – |
| CC(C)C[C@@H](NC(=O)c1cc2ccccc2o1)C(=O)N[C@@H]1CCCN(S(=O)(=O)c2cccc[n+]2[O-])CC1=O [Example 49] | 5.6 | 3.1 | – | – |
| COc1cccc2oc(C(=O)N[C@@H](CC(C)C)C(=O)NC3CCCN(S(=O)(=O)c4cccc[n+]4[O-])CC3=O)c(C)c12 (stereo partly drawn) [Example 208, 4-Methoxy-3-methyl-benzofuran-2-carboxylic acid {(S)-3-methyl-1-[3-oxo-1-(1-oxy-pyridine-2-sulfonyl)-azepan-4-ylcarbamoyl]-butyl}-amide] | 10 | – | – | 4.2 |
| CC(C)C[C@@H](NC(=O)c1ccc(Br)o1)C(=O)N[C@@H]1CCCN(S(=O)(=O)c2cccc[n+]2[O-])CC1=O [Example 50, 5-Bromo-furan-2-carboxylic acid {(S)-3-methyl-1-[3-oxo-1-(1-oxy-pyridine-2-sulfonyl)-azepan-4-ylcarbamoyl]-butyl}amide] | 10 | 2.1 | – | – |
| CC(C)C[C@@H](NC(=O)c1ccc2ncccc2c1)C(=O)N[C@@H]1CCCN(S(=O)(=O)c2ccccn2)CC1=O (stereo in doubt) [Example 25, Quinoline-6-carboxylic acid {(S)-3-methyl-1-[3-oxo-1-(pyridine-2-sulfonyl)-azepan-4-ylcarbamoyl]-butyl}amide] | 8.3 | 8 | – | – |
| CC(C)C[C@@H](NC(=O)c1cc2sccc2s1)C(=O)N[C@@H]1CCCN(S(=O)(=O)c2ccccn2)CC1=O (single isomer, unassigned) [Example 98] | 5.2 | 3.9 | – | – |
| Cc1c(C(=O)NC(CC(C)C)C(=O)N[C@H]2CCCN(S(=O)(=O)c3cccc[n+]3[O-])CC2=O)oc2cc(F)ccc12 (single isomer, unassigned) [Example 196] | 11 | 6.8 | – | – |
